Reference: ChEMBL document CHEMBL1201862, “PubChem BioAssay data set” (2004)
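Test compounds were applied to cells in 96-well plates for 48 hours at 5 doses. At the GI50, growth is halved.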 Activity calls are given as the source filed them. Cut-off read from the data, not from the text of the source: active = GI50 up to about 1.1 µM and inactive = higher.

Columns and labels:
Assay in all cases: DTP human tumour cell line panel, 48 h
[1] = tested on: PC-3
[2] = tested on: CCRF-CEM
[3] = tested on: U-251
[4] = tested on: NCI-H226
[5] = tested on: HCT-15
[6] = tested on: SF-295
[7] = tested on: NCI-H460
[8] = tested on: SW-620
[9] = tested on: IGROV-1
[10] = tested on: T47D
[11] = tested on: COLO 205
[12] = tested on: SF-268
[13] = tested on: HL-60
[14] = tested on: RPMI-8226
[15] = tested on: A498
[16] = tested on: Malme-3M
[17] = tested on: SK-MEL-28
[18] = tested on: ACHN
[19] = tested on: MDA-MB-435
[20] = tested on: SN12C

## c1nc(NCCc2c[nH]cn2)c2nc[nH]c2n1
[1]
  GI50: > 100 µM (inactive)
[2]
  GI50: > 100 µM (inactive)
[3]
  GI50: > 100 µM (inactive)
[4]
  GI50: 91.6 µM (inactive)
[5]
  GI50: > 100 µM
[6]
  GI50: > 100 µM (inactive)
[7]
  GI50: > 100 µM (inactive)
[8]
  GI50: > 100 µM (inactive)
[9]
  GI50: > 100 µM (inactive)
[10]
  GI50: > 100 µM (inactive)
[11]
  GI50: > 100 µM (inactive)
[12]
  GI50: > 100 µM (inactive)
[13]
  GI50: 26.7 µM (inactive)
[14]
  GI50: > 100 µM (inactive)
[15]
  GI50: > 100 µM (inactive)
[16]
  GI50: > 100 µM (inactive)
[17]
  GI50: > 100 µM (inactive)
[18]
  GI50: > 100 µM (inactive)
[19]
  GI50: > 100 µM (inactive)
[20]
  GI50: > 100 µM (inactive)

## CC(=O)[C@@H](C)C(=O)N1C(=O)OC[C@@]12[C@@H]1CC[C@@H](C1)C2(C)C
[1]
  GI50: > 100 µM (inactive)
[2]
  GI50: > 100 µM (inactive)
[3]
  GI50: > 100 µM (inactive)
[4]
  GI50: > 100 µM (inactive)
[5]
  GI50: > 100 µM
[6]
  GI50: > 100 µM (inactive)
[7]
  GI50: > 100 µM (inactive)
[8]
  GI50: > 100 µM (inactive)
[9]
  GI50: > 100 µM (inactive)
[10]
  GI50: > 100 µM (inactive)
[11]
  GI50: > 100 µM (inactive)
[13]
  GI50: > 100 µM (inactive)
[14]
  GI50: > 100 µM (inactive)
[15]
  GI50: > 100 µM (inactive)
[16]
  GI50: > 100 µM (inactive)
[17]
  GI50: > 100 µM (inactive)
[18]
  GI50: > 100 µM (inactive)
[19]
  GI50: > 100 µM (inactive)
[20]
  GI50: > 100 µM (inactive)

## COc1ccc(C2c3cc4c(cc3OC(NNc3ccccc3)C2C)OCO4)cc1 (centres undefined)
[1]
  GI50: 4.8 µM (inactive)
[2]
  GI50: 4.01 µM (inactive)
[3]
  GI50: 7.35 µM (inactive)
[4]
  GI50: 16.3 µM (inactive)
[5]
  GI50: 1.05 µM
[6]
  GI50: 2.08 µM (inactive)
[7]
  GI50: 3.57 µM (inactive)
[8]
  GI50: 21.7 µM (inactive)
[9]
  GI50: 7.31 µM (inactive)
[10]
  GI50: 6.12 µM (inactive)
[11]
  GI50: 7.06 µM (inactive)
[12]
  GI50: 20.3 µM (inactive)
[13]
  GI50: 5.25 µM (inactive)
[14]
  GI50: 4.47 µM (inactive)
[15]
  GI50: 17.2 µM (inactive)
[16]
  GI50: 8.47 µM (inactive)
[17]
  GI50: 26.4 µM (inactive)
[18]
  GI50: 1.93 µM (inactive)
[19]
  GI50: 4.71 µM (inactive)
[20]
  GI50: 11 µM (inactive)

## S=c1sc2c(s1)SCc1cccc(n1)CSc1sc(=S)sc1SCc1cccc(n1)CS2
[1]
  GI50: > 100 µM (inactive)
[2]
  GI50: > 100 µM (inactive)
[3]
  GI50: > 100 µM (inactive)
[4]
  GI50: > 100 µM (inactive)
[5]
  GI50: > 100 µM
[6]
  GI50: > 100 µM (inactive)
[7]
  GI50: > 100 µM (inactive)
[8]
  GI50: > 100 µM (inactive)
[9]
  GI50: > 100 µM (inactive)
[10]
  GI50: > 100 µM (inactive)
[11]
  GI50: > 100 µM (inactive)
[12]
  GI50: > 100 µM (inactive)
[13]
  GI50: > 100 µM (inactive)
[14]
  GI50: > 100 µM (inactive)
[15]
  GI50: > 100 µM (inactive)
[16]
  GI50: > 100 µM (inactive)
[17]
  GI50: > 100 µM (inactive)
[18]
  GI50: > 100 µM (inactive)
[19]
  GI50: > 100 µM (inactive)
[20]
  GI50: > 100 µM (inactive)
